From ChEMBL document CHEMBL2073757, “Effect of flavonoids on MRP1-mediated transport in Panc-1 cells” (J Pharm Sci, 2003)
Each block holds one compound with its values, some of them ahead of it.

Experiments:
Assay type in all cases: functional, cell-based
[1] = biological target: T1, Multidrug resistance-associated protein 1 (Homo sapiens, UniProt P33527); test: TP_TRANSPORTER: increase in Vinblastine intracellular accumulation (Vinblastine: 0.05 uM, Chrysin: 100 uM) in Panc-1 cells; conditions: panc-1, 100 µM
[2] = biological target: T1, Multidrug resistance-associated protein 1; test: TP_TRANSPORTER: increase in Daunomycin intracellular accumulation (Daunomycin: 0.05 uM, Chrysin: 100 uM) in Panc-1 cells; conditions: panc-1, 100 µM
[3] = biological target: T1, Multidrug resistance-associated protein 1; test: TP_TRANSPORTER: increase in Vinblastine intracellular accumulation (Vinblastine: 0.05 uM, Genistein: 100 uM) in Panc-1 cells; conditions: panc-1, 100 µM
[4] = biological target: T1, Multidrug resistance-associated protein 1; test: TP_TRANSPORTER: increase in Daunomycin intracellular accumulation (Daunomycin: 0.05 uM, Genistein: 100 uM) in Panc-1 cells; conditions: panc-1, 100 µM
[5] = biological target: T1, Multidrug resistance-associated protein 1; test: TP_TRANSPORTER: increase in Vinblastine intracellular accumulation (Vinblastine: 0.05 uM, BiochaninA: 101 uM) in Panc-1 cells; conditions: panc-1, 101 µM
[6] = biological target: T1, Multidrug resistance-associated protein 1; test: TP_TRANSPORTER: increase in Daunomycin intracellular accumulation (Daunomycin: 0.05 uM, BiochaninA: 100 uM) in Panc-1 cells; conditions: panc-1, 100 µM
[7] = biological target: T1, Multidrug resistance-associated protein 1; test: TP_TRANSPORTER: increase in Vinblastine intracellular accumulation (Vinblastine: 0.05 uM, Silymarin: 100 uM) in Panc-1 cells; conditions: panc-1, 100 µM
[8] = biological target: T1, Multidrug resistance-associated protein 1; test: TP_TRANSPORTER: increase in Daunomycin intracellular accumulation (Daunomycin: 0.05 uM, Silymarin: 100 uM) in Panc-1 cells; conditions: panc-1, 100 µM
[9] = biological target: T1, Multidrug resistance-associated protein 1; test: TP_TRANSPORTER: increase in Vinblastine intracellular accumulation (Vinblastine: 0.05 uM, Morin: 100 uM) in Panc-1 cells; conditions: panc-1, 100 µM
[10] = biological target: T1, Multidrug resistance-associated protein 1; test: TP_TRANSPORTER: increase in Daunomycin intracellular accumulation (Daunomycin: 0.05 uM, Morin: 100 uM) in Panc-1 cells; conditions: panc-1, 100 µM
[11] = biological target: T1, Multidrug resistance-associated protein 1; test: TP_TRANSPORTER: increase in Vinblastine intracellular accumulation (Vinblastine: 0.05 uM, Phloretin: 100 uM) in PANC-1 cells; conditions: panc-1, 100 µM
[12] = biological target: T1, Multidrug resistance-associated protein 1; test: TP_TRANSPORTER: increase in Daunomycin intracellular accumulation (Daunomycin: 0.05 uM, Phloretin: 100 uM) in PANC-1 cells; conditions: panc-1, 100 µM

T1 sequence (P33527 whole entry): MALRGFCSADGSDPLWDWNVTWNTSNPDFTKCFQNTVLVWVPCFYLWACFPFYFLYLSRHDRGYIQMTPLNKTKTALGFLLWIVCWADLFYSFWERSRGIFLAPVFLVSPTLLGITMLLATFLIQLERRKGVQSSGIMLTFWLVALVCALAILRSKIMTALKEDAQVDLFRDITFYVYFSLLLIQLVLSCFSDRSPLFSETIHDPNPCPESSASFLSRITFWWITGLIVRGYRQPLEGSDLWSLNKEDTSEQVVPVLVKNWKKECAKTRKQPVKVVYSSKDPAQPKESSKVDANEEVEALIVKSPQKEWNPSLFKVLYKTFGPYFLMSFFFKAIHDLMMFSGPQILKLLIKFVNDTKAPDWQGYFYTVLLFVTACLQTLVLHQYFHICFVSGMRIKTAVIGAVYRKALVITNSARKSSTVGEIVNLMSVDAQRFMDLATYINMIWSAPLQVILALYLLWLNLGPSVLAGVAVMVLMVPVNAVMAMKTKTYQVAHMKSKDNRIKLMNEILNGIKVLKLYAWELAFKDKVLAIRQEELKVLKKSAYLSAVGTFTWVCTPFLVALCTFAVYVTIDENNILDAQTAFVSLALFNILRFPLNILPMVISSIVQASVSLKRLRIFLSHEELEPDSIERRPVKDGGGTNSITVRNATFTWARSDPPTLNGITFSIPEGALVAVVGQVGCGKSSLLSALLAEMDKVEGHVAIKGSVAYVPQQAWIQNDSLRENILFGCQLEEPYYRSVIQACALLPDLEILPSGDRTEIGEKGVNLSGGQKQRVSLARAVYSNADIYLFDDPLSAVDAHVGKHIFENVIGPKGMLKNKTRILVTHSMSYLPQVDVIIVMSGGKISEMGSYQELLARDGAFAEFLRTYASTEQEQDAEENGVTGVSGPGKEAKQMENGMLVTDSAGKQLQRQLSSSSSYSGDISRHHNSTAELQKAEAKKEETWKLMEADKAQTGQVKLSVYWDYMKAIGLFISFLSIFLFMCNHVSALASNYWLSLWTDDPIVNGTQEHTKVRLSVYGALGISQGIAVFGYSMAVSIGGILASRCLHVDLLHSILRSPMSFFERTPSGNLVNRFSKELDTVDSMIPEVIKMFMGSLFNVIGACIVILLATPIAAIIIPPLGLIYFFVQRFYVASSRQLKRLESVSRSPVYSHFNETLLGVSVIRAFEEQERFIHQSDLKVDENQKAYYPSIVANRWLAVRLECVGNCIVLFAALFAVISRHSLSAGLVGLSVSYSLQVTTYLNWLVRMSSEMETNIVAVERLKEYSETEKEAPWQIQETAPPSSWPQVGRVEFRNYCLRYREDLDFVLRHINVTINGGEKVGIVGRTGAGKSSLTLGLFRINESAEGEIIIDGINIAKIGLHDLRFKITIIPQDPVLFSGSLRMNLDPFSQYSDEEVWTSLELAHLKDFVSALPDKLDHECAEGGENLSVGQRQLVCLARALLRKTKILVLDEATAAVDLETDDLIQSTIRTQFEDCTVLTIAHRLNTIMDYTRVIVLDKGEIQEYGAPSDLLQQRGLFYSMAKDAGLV

Activity [1]: 180%
Activity [2]: 198%
Compound: O=c1cc(-c2ccccc2)oc2cc(O)cc(O)c12 [CHRYSIN]

Activity [3]: 191%
Activity [4]: 156%
Compound: O=c1c(-c2ccc(O)cc2)coc2cc(O)cc(O)c12 [GENISTEIN]

Activity [5]: 330%
Activity [6]: 178%
Compound: COc1ccc(-c2coc3cc(O)cc(O)c3c2=O)cc1 [BIOCHANIN]

Activity [7]: 329%
Activity [8]: 305%
Compound: SILYMARIN

Activity [9]: 553%
Activity [10]: 546%
Compound: O=c1c(O)c(-c2ccc(O)cc2O)oc2cc(O)cc(O)c12 [MORIN]

Activity [11]: 251%
Activity [12]: 295%
Compound: O=C(CCc1ccc(O)cc1)c1c(O)cc(O)cc1O [PHLORETIN]
